Results on ten molecules are retold here after patent publication US8728754B1, “Use of proteins isolated from Pseudomonas to control molluscs” (priority 2013, dated 2014).

Data set [1] concerns CL145A (ATCC 55799). The data set can be described thus: Antibiotic resistance profile (antibiotic discs on Mueller-Hinton Agar). The note with it: for Suppresses growth of CL145A: 25° C., 72 hours; for CL145A resistant or sensitive to the antibiotic: antibiotic disc, 72 hours incubation.
Protocol: One glycerol stock vial of CL145A was equally distributed onto Mueller-Hinton Agar plates (100 μl per plate) and spread on the plate using a sterile cell spreader. Antibiotic discs were then placed onto the plates along with a blank sterile disc. Plates were incubated at 25° C. in the dark for 72 hours.
Data set [2] deals with mussels. The data set can be described thus: Mussel bioassay in scintillation vials. Format: in vivo. How it is done: Mussel bioassays were performed in twenty milliliter scintillation vials. Ten small mussels (approximately 1 cm long) were incubated in the mussel water (10 mL) for 24 hr first, then the mussel water (10 mL) was changed freshly before test cell lysis was added. Cell lysis or proteins (maximal 500 μL) was added into each vial. After 24 hr, the mussel water with cell lysis or proteins was changed with clean mussel water. Then, mussel water was changed every 24 hr with clean mussel water. Dead mussels were taken away every day and mussel mortality was calculated by number of dead mussel divided by the number of total mussels.

For the molecule `CC1(C)S[C@@H]2[C@H](NC(=O)[C@H](N)c3ccccc3)C(=O)N2[C@H]1C(=O)O` [Ampicillin], in data set [1] (10 μg disc), the “Suppresses growth of CL145A” value is “No”. For the same molecule, the “CL145A resistant or sensitive to the antibiotic” value (“CL145A resistant or sensitive” for short) in data set [1] was “resistant”.

As for `CO/N=C(\C(=O)N[C@@H]1C(=O)N2C(C(=O)O)=C(COC(N)=O)CS[C@H]12)c1ccco1` [Cefuroxime], in data set [1] (30 μg disc), the “Suppresses growth of CL145A” value was “No”. Besides, the “CL145A resistant or sensitive” value in data set [1] was “resistant”.

In the case of `O=C(N[C@H](CO)[C@H](O)c1ccc([N+](=O)[O-])cc1)C(Cl)Cl` [Chloramphenicol], in data set [1] (30 μg disc), the “Suppresses growth of CL145A” value is on record as “No”. Moreover, in data set [1], the “CL145A resistant or sensitive” value was “resistant”.

Consider `CC[C@H]1OC(=O)[C@H](C)[C@@H](O[C@H]2C[C@@](C)(OC)[C@@H](O)[C@H](C)O2)[C@H](C)[C@@H](O[C@@H]2O[C@H](C)C[C@H](N(C)C)[C@H]2O)[C@](C)(O)C[C@@H](C)C(=O)[C@H](C)[C@@H](O)[C@]1(C)O` [Erythromycin], for which the “Suppresses growth of CL145A” value in data set [1] (15 μg disc) is “No”. In data set [1], the “CL145A resistant or sensitive” value is on record as “resistant”.

`CCN1CCN(C(=O)N[C@@H](C(=O)N[C@@H]2C(=O)N3[C@@H]2SC(C)(C)[C@@H]3C(=O)O)c2ccccc2)C(=O)C1=O` [Piperacillin]: in data set [1] (100 μg disc), the “Suppresses growth of CL145A” value is recorded as “Yes”. Further, the “CL145A resistant or sensitive” value in data set [1] is “sensitive”.

As to `[H]/N=C(/N)N[C@H]1[C@H](O)[C@@H](O)[C@H](O[C@@H]2O[C@@H](C)[C@](O)(C=O)[C@H]2O[C@@H]2O[C@@H](CO)[C@H](O)[C@@H](O)[C@@H]2NC)[C@@H](N/C(N)=N\[H])[C@@H]1O` [Streptomycin], in data set [1] (10 μg disc), the “Suppresses growth of CL145A” value was “No”. The “CL145A resistant or sensitive” value in data set [1] is “resistant”.

With Gentamicin, in data set [1] (10 μg disc), the “Suppresses growth of CL145A” value is listed as “Yes”. Moreover, the “CL145A resistant or sensitive” value in data set [1] is “sensitive”.

On to Penicillin, for which the “Suppresses growth of CL145A” value in data set [1] (10 μg disc) is “No”. In data set [1], the “CL145A resistant or sensitive” value was “resistant”.

Regarding Sulphamethoxazole-Trimethoprim, the “Suppresses growth of CL145A” value in data set [1] (23.75/25 μg disc) was “Yes”. In data set [1], the “CL145A resistant or sensitive” value is reported as “sensitive”.

For “fumarate hydratase Class II (or fumarase) [Protein B]”, the “Mussel mortality at 7th day” value in data set [2] (4 ppm, 7th day) was 60%. In addition, the “Activity in mussel bioassay of proteins and fractions dosed after gel analysis” value in data set [2] (in vivo) is listed as “active”.
